Assay results reported in ChEMBL document CHEMBL3507680, “University of Dundee, Gates Library screen for HepG2 cell viability”.

Test: Human HepG2 cell viability assay in 384 well format
Format: toxicity, cell-based
Parameters: dose 125 nL, time 70.5 hour; concentration not given beside the values
Conditions: HepG2 cells, read-out: Inhibition

| Structure (SMILES) | cytotoxicity at 70.5 h [%] |
| --- | --- |
| O=C(c1sccc1-n1cnnn1)N1CCC(Cc2ccccc2)CC1 | -4.62 |
| Cc1ccsc1C(=O)N1CCC(O)(CN2CCc3ccccc3C2)C1 (configuration not stated) | -6.62 |
| COc1ccccc1S(=O)(=O)CCOC(C)C | -3.27 |
| COc1ccccc1CNC(Cc1cccs1)c1nc(C)cs1 (configuration not stated) | 3.54 |
| Cc1ccc(C(O)CNCCn2cccn2)cc1C (configuration not stated) | -3.19 |
| COCC1CN(c2ccc(C)nn2)Cc2cnn(CC3CCOCC3)c21 (configuration not stated) | -6.71 |
| O=C(NC1(c2nccs2)CCCC1)c1cc(C2CC2)[nH]n1 | -2.38 |
| COCCN1C(=O)C2(CCN(CC3CC3)CC2)c2ccccc21 | 0.205 |
| CC(CNC(=O)c1cc(N2CCNC2=O)ccc1F)c1ccccc1 (configuration not stated) | -6.76 |
| O=C(O)COc1ccc(Cl)cc1CN1CCC2(CCNCC2)CC1 | -11.2 |
| CSCCC(NC(N)=O)C(=O)Nc1ccc(-n2cccn2)nc1 (configuration not stated) | -7.37 |
| CCCc1nc(C)c(CNc2nc(C)nc3oc(C)nc23)s1 | -8.14 |
| Cc1cscc1-c1nc(C2CCOC2)no1 (configuration not stated) | -5.31 |
| NC(=O)Cn1cc(NC(=O)N2CCC(c3ccccc3)CC2)cn1 | -5.24 |
| Cn1cc(Br)c(C(=O)NCCn2cc(Br)cn2)n1 | 8.47 |
| Cc1noc(C)c1CC(=O)Nc1ccn(CC(N)=O)n1 | -5.49 |
| COCCN(Cc1cccc(O)c1)CC1CC1 | 29.9 |
| CCc1ccc2nc(C)cc(C(=O)N[C@@H]3CCCNC3)c2c1 | 2.34 |
| O=C1CO[C@@H]2CN(Cc3ccsc3)C[C@H]2N1Cc1ccncc1 | 13.6 |
| Cc1cnc(N2CCC3(CC2)CC3CNC(=O)N(C)C)nc1 (configuration not stated) | -6.55 |
| CC(CNC(=O)c1cccnc1O)Cn1cccn1 (configuration not stated) | -7.01 |
| Cc1nc(N2CCN(C)CC2)ncc1C(=O)N1CCN(C)CC1 | -4.76 |
| CC(C)=CCN1CCOC(Cn2cccn2)C1 (configuration not stated) | 1.11 |
| Cc1nnc(NCC2(c3ccc(Cl)cc3Cl)CCOCC2)c(C#N)c1C | 13.2 |

| Structure (SMILES) | cytotoxicity at 70.5 h [%] |
| --- | --- |
| CN(Cc1cc[nH]n1)C(=O)c1cn(Cc2ccccc2Cl)nn1 | -9.32 |
| COCCn1ccc(=O)c(OCC(=O)Nc2ccc(OC)c(Cl)c2)c1C | -5.11 |
| CCn1cc(CN2CCC3(CC2)c2ccccc2CC3O)cn1 (configuration not stated) | -8.46 |
| Cc1cnn(CCC(=O)N2CCCN(c3ncccc3C#N)CC2)c1 | 0.758 |
| CC(C)C1SCC(=O)Nc2c1cnn2-c1ccc(Cl)cc1 (configuration not stated) | -1.66 |
| CC(C)c1cc(C(=O)N2CCN(C)[C@@H]3CS(=O)(=O)C[C@@H]32)no1 | -7.29 |
| CCC(=O)NCC(=O)NCc1cc(Br)ccc1OC(F)F | -5.29 |
| CCc1ccc(CNc2cc(N3CCCC3CO)ncn2)s1 (configuration not stated) | 1.8 |
| CCOC(=O)C1CCN(C(=O)CN2CCCC2c2ccsc2)CC1 (configuration not stated) | -3.85 |
| Cc1ccccc1N1CCN(C(=O)Cn2ccnc2)CC1=O | 14.2 |
| Nc1cc(-c2c[nH]nc2C2CCCN2CCCc2ccccc2)ccn1 (configuration not stated) | -1.57 |
| Cc1nccn1C1CCCN(C(=O)c2ccc(N3CCCC3)nn2)C1 (configuration not stated) | -4.33 |
| CC(C)CN1CCCn2nc(CNC(=O)CCCc3cn[nH]c3)cc2C1 | -9.85 |
| CC(C)Nc1ccnc(-c2ccnc3c2ccn3C)n1 | -9.28 |
| Cc1ccc(C(=O)NCCS(=O)(=O)N2CCSCC2)o1 | 3.19 |
| CC(=O)N1CCO[C@@H]2CN(C(=O)c3ccc4ccccc4c3)CC[C@@H]2C1 | -2.64 |
| Cc1ccc(NCc2ccco2)cc1N1CCOC1=O | -16 |
| COc1ccc(Cl)cc1NCC(=O)NCCNc1cnccn1 | -10.9 |
| CN(c1nc(Cn2cc(Br)ccc2=O)cs1)C1CC1 | -4.85 |
| CN(C)S(=O)(=O)NCc1nn(CCN2CCCC2)c(=O)c2ccccc12 | -12.7 |
| Cc1ccc(NC2CCN(C(=O)c3cscn3)CC2)nn1 | 0.539 |
| Fc1ccc(CN2CCc3ncnc(C4CC4)c3CC2)cc1 | 1.98 |
| Cc1ccc(C(=O)N2CCCC2c2nnc3n2CCCCC3)o1 (configuration not stated) | -7.2 |
| Cc1ncsc1-c1nnc(C2CCN(CC3CCCCC3)CC2)o1 | -8.62 |

| Structure (SMILES) | cytotoxicity at 70.5 h [%] |
| --- | --- |
| Cc1ccc(N2CCC3(CCN(C(=O)c4ccsc4)C3)CC2)nn1 | -12.9 |
| CCOc1ccccc1OC1CCN(C(=O)c2ccc(=O)[nH]n2)CC1 | -7.24 |
| C[C@H](CCO)NS(=O)(=O)c1ccc(Br)cn1 | -6.95 |
| Cc1ccc(NC2CCN(C(=O)c3ccc4c(c3)CCC4)CC2)nn1 | -0.715 |
| O=C(c1cccc(C2CCNC2)c1)N1CCC(N2CCC(O)CC2)CC1 (configuration not stated) | 44.2 |
| CC(C)C1CN(C(=O)Nc2cnn(CC(F)F)c2)CCO1 (configuration not stated) | -4.6 |
| Cc1cccn2cc(CN3CCC(N4CCN(C)C4=O)CC3)nc12 | -6.74 |
| CC(C)NC(=O)c1cc2c(s1)CCN2C(=O)CN(C)C | -4.91 |
| COc1ncc(C2(O)CCN(Cc3cc(F)cc(F)c3)CC2)c(OC)n1 | -2.18 |
| CC(C)(C)NC(=O)NC(=O)CN1C=Nc2ccccc2S1(=O)=O | -8.6 |
| CCCc1n[nH]c(C2CN(C(=O)CCCn3ccnc3C)CCO2)n1 (configuration not stated) | 4.08 |
| CCCn1nnnc1COC(=O)C1COc2ccccc2O1 (configuration not stated) | -6.23 |
| Cc1cc(-c2cccc3c2CCNC3)cnc1-n1cnnc1 | -5.08 |
| Cc1ccc(OCc2occc2C(=O)N2C[C@@H]3[C@@H](CN(C)C)[C@@H]3C2)cc1 | -9.55 |
| CC(=O)N(C)Cc1nn(C)c2c1CN(Cc1ccsc1)C2 | -6.65 |
| COc1ccc(CNC(=O)c2nn(C)c3c2CS(=O)(=O)CC3)cc1OC | 1.56 |
| OC(CNCCc1nnc2ccccn12)c1ccc2c(c1)OCO2 (configuration not stated) | -5.97 |
| COC(=O)CCN1CCC(C(=O)c2cc(F)ccc2F)CC1 | -12.5 |
| CCN(CC(O)c1ccc(C)cc1)C(=O)NC(C)C (configuration not stated) | -1.93 |
| CC(NC(=O)NCCCc1n[nH]c(N)c1C#N)c1ccc(F)cc1 (configuration not stated) | -6.13 |
| CC(C)CCc1noc(CN2CCCC(CNS(N)(=O)=O)C2)n1 (configuration not stated) | -1.48 |
| COCCCn1c(CN2CCCCO2)cnc1S(=O)(=O)C1CCCC1 | -4.4 |
| O=C(NCCNC(=O)c1scnc1Cl)c1ccccc1Cl | -8.93 |
| CC(C)CN1CCN(C)C2(CCN(Cc3ccsc3)CC2)C1=O | 0.403 |

| Structure (SMILES) | cytotoxicity at 70.5 h [%] |
| --- | --- |
| CC(C1CC1)N(C(=O)CNc1ccc(C#N)cc1)C1CC1 (configuration not stated) | -6.5 |
| c1cnn(C2CN(Cc3nc(-c4ccsc4)no3)C2)c1 | -11.9 |
| Cc1[nH]c(=O)[nH]c(=O)c1CC(=O)N1CCCN(CC2CC2)C(C(C)C)C1 (configuration not stated) | 0.527 |
| COC(C)(C)CC(C)NCc1nncn1C1CCCCC1 (configuration not stated) | -7.83 |
| O=C(NC1CC1)C1(Cc2ccccc2-c2ccncc2)CCOCC1 | 7.42 |
| CC(C#N)(NC(=O)Cn1cc(I)cn1)C1CC1 (configuration not stated) | 6.23 |
| CC(C)N(C)Cc1cnc2n1CCN(C(=O)NC1CCCC1)C2 | -9.47 |
| COc1cc(C2SCC(=O)Nc3ccsc32)cc(OC)c1OC (configuration not stated) | -14.5 |
| Cc1cccc2c1cnn2CCCNC(=O)c1ccnn1C | -12.7 |
| CCOc1ccccc1C(CC(=O)N(C)C)NC(C)=O (configuration not stated) | -0.953 |
| COc1ccnc(N2CCN(C(=O)c3cnn(C)c3C3CC3)CC2)n1 | -6.28 |
| CN1CC(=O)N(c2cccc(F)c2)CC12CCNC2 (configuration not stated) | 1.26 |
| CC(=O)N1CCN(CC(C)(O)c2cccc(C(F)(F)F)c2)CC1 (configuration not stated) | -8.81 |
| c1coc(CNc2nnc(Cc3ccsc3)o2)c1 | -3.55 |
| CC(c1nc(C2CC2)no1)N1CCN(Cc2ccsc2)CC1 (configuration not stated) | -12.3 |
| Cc1cn2c(CN(C)C(=O)c3cccnc3O)c(C)nc2s1 | -4.29 |
| O=C(CCCNc1ncccn1)Nc1ccc(Cn2cncn2)cc1 | -10.8 |
| CC(=O)NC(c1cc(F)ccc1F)C1CC1 (configuration not stated) | -3.82 |
| COc1cccc(Cn2cc(N3C(=O)CCC3=O)cn2)c1 | 3.42 |
| COc1ccc(NC(=O)CSc2nc(C)c(C)c(C)c2C#N)cn1 | -2.39 |
| Cc1ccc(Br)cc1NC(=O)NC1CCC2(C1)OCCO2 (configuration not stated) | 18.1 |
| Cc1nc(N(C)C)ncc1C(=O)N[C@@H]1CCc2ccccc21 | -11.5 |
| Cc1c(Cl)cccc1S(=O)(=O)NCC(O)c1cccn1C (configuration not stated) | -3.24 |
| C=C(C)CN1CCC(c2n[nH]c(C3CC3)n2)CC1 | 23.2 |

| Structure (SMILES) | cytotoxicity at 70.5 h [%] |
| --- | --- |
| CCn1ccc(NC(=O)CN2C(=O)C(C)(C)c3ccccc32)n1 | -11.1 |
| CC(C)c1nc(CNc2ccc(CNS(C)(=O)=O)cc2)cs1 | -8.66 |
| Cn1ccc2c(cnc3nc(-c4ccncc4)nn32)c1=O | -7.69 |
| Cc1ccc(-c2nnc(CN3CCCC(O)(CO)CC3)o2)n1C (configuration not stated) | 14.8 |
| CC(C)CN1CCC(NCCNc2cccnc2)CC1 | -17.2 |
| CN(Cc1cnn(C)c1)CC(O)c1ccc2c(c1)OCO2 (configuration not stated) | -2.83 |
| CCN(CC1CN(Cc2nc(C3CC3)no2)CCO1)c1cccnn1 (configuration not stated) | -16.6 |
| COCCN1CCN(C(=O)C[C@@H]2C[C@@H](C(C)C)[C@H](CC#N)C=C2C)CC1 | 1.71 |
| OC1CN(Cc2cccc(N3CCOCC3)c2)Cc2ccccc21 (configuration not stated) | -0.922 |
| c1cnn(CC2CN(Cc3nc(C4CC4)no3)CCO2)c1 (configuration not stated) | 19.7 |
| CC(C)C(=O)N1CCCC(c2cncc(Oc3cccnc3)n2)C1 (configuration not stated) | -2.17 |
| Cc1nc(C2CCCN2C(=O)c2csc3c2CCCC3)no1 (configuration not stated) | -1.72 |
| COCCOc1cc(C(=O)N2CC(C)c3ccccc32)ccn1 (configuration not stated) | -11.1 |
| COC(=O)C1CCN(C(=O)c2cc(Br)ccc2-n2cnnn2)CC1 | -1.5 |
| Cc1cnc2c(c1NCc1cccs1)c(=O)n(C)c(=O)n2C | -16.9 |
| CCc1nc(CC(=O)N2CCn3c(CC)nnc3C2)cs1 | -2.3 |
| COc1ccc(CNCc2ccnc(N3CCCC3)c2)c(OC)c1 | -1.69 |
| O=C(c1cccc2c1OCCO2)N1CCCCC1Cn1cccn1 (configuration not stated) | -6.1 |
| Cn1cccc1C(=O)N1CCC2(CC1)CN(S(C)(=O)=O)c1ccccc12 | 3.63 |
| Cc1cccc(S(=O)(=O)N2CCC3(CC2)CC(N(C)C)CO3)c1 (configuration not stated) | -10.7 |
| COc1cc(CN)c(OC)c2c1OCO2 | -15.1 |
